The test relates to T. cruzi Tulahuen in NIH-3T3, beta-gal fluorescence, 4 d. Briefly: T. cruzi intracellular growth inhibition, cell-based (AID 1159559).

Calls of active or inactive are those of the source.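 How the source made its calls: active means compounds whose IC50 against parasite growth in infected mouse cells is below 50000 nM; inactive means the rest.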 A value given as a limit tells only on which side of the number the result lay.

As a reminder, the IC50 is the point on the concentration scale where inhibition reaches its midpoint. `COc1ccc(CN(C)Cc2ccncc2)cc1-c1ccc(S(=O)(=O)NC2CCC2)s1`: the IC50 was 500 nM.
Take `NS(=O)(=O)c1ccc(Nc2ncc3cccc(OC4CCNCC4)c3n2)cc1`: the 50% inhibitory concentration (IC50) was 1600 nM.
Take `CCCN1CCN(Cc2ccc(S(=O)(=O)Nc3cccc(C)c3)cc2)CC1`: the concentration for half-maximal inhibition (IC50) is 790 nM.
With `Nc1nonc1-c1nc2cncc(C(=O)N3CC[C@H](N)C3)c2n1CC1CC1`, the IC50 is > 50000 nM (inactive).
For `O=C(NCCc1cccnc1)c1ccc(-c2ccccc2F)o1`, the IC50 is 100 nM.
The value for `O=C(Nc1ncc([N+](=O)[O-])s1)C1CC1` was 400 nM; that for `CN(C)Cc1cccc(Nc2nccc(-c3ccc(NCCN)c(C#N)c3)n2)c1` was 1000 nM; that for `Cc1[nH]nc2c1C(c1ccc(OCc3ccccc3F)cc1)SCC(=O)N2` (centres undefined) was 2000 nM.
As for `CC(C)CC(=O)Nc1cc(C2CC2)nn1-c1nc2c(c(=O)[nH]1)CCCC2`, the IC50 was 790 nM.
The value for `Cc1nnnn1-c1cccc(C(=O)N2CCC[C@@]3(C)c4ncncc4CCC23)c1` (some centres undefined) was 630 nM; that for `O=C1CN(C(=O)c2cccc(Nc3ncc(-c4ccc5c(c4)OCO5)cn3)c2)CCN1` was 1600 nM.
The same measure for `COc1ccc(-c2csc(NC(=O)c3ccc([N+](=O)[O-])s3)n2)cc1OC`: 100 nM; for `COc1ccc(S(=O)(=O)Nc2ccccc2OC)cc1NC(=O)CCCc1c[nH]c2ccccc12`: 1600 nM; for `Cc1ccccc1NS(=O)(=O)c1ccc2[nH]cc(C(=O)NC3CCCCC3)c(=O)c2c1`: 10000 nM.
For `COc1cc(C(C)C)c(S(C)(=O)=O)cc1C(=O)N1CCN(c2ccccc2Cl)CC1`, the IC50 is 1600 nM.
For `O=C(CN1CCN(c2ccccn2)CC1)Nc1cc(S(=O)(=O)N2CCCCCC2)ccc1Cl`, the IC50 was 10000 nM.
`COc1ccc(C(=O)Nc2c(C)nn(COc3cccc(C(F)(F)F)c3)c2C)cc1`: the IC50 was 25000 nM.
Regarding `CCOc1ccc(NC(=O)c2ccc(NC(=O)NC3CCCCC3)cc2)cc1`, the half-maximal inhibitory concentration (IC50) was 32000 nM.
The same measure for `CC(c1ccccn1)N(C)Cc1nc2ccccc2n1C(C)C` (centres undefined): 1600 nM.
In the case of `c1cc(-c2ncc(-c3ccn[nH]3)s2)ccn1`, the half-maximal inhibitory concentration (IC50) was 160 nM.
For `CC1(Oc2cncc(Cl)c2)CCN(Cc2cc3ccccc3[nH]2)C1` (centres undefined), the concentration for half-maximal inhibition (IC50) is 1000 nM.
In the case of `Cc1nn(C2CCS(=O)(=O)C2)c(C)c1CN(C)C(=O)C=Cc1sc2ccccc2c1Cl` (centres undefined), the IC50 was 630 nM.
On to `Cc1cccc(NS(=O)(=O)c2ccc3c(c2)C(=O)c2cc(S(=O)(=O)Nc4cccc(C)c4C)ccc2-3)c1C`, for which the IC50 is 400 nM.
For the compound `CCCCc1cc(Nc2cc(C3CCC3)[nH]n2)nc(N2CCC2C(N)=O)n1` (centres undefined), the IC50 was 3200 nM.
As for `Cc1ccc(S(C)(=O)=O)cc1Nc1nccc(-c2sc(N)nc2-c2ccccc2)n1`, the half-maximal inhibitory concentration (IC50) was 130 nM.
On to `Cc1nn(-c2ccccc2)nc1CNC(=O)CN(Cc1ccccn1)Cc1ccccn1`, for which the IC50 is 4000 nM.
In the case of `CCc1ccccc1[C@@H](C)NC(=O)c1cnc2c(cnn2CC)c1NC1CCN(C(N)=O)CC1`, the half-inhibitory concentration (IC50) is 25000 nM.
For the compound `Cc1cc(=O)n2nc(Oc3ccc(C#N)cc3Cl)sc2n1`, the IC50 was 16000 nM.
Turning to `Cc1ccc2onc(Nc3ccnc(Nc4cccc(S(C)(=O)=O)c4)n3)c2c1`, the concentration for half-maximal inhibition (IC50) is 4000 nM.
The same measure for `O=C(NC1CCN(C2Cc3ccc(NS(=O)(=O)c4cc(F)cc(F)c4)cc3C2)CC1)C1CC1` (centres undefined): > 50000 nM (inactive); for `CN1CCCN(C(=O)c2ccc(N3CCCC3)cc2Cl)CC1`: 790 nM; for `O=C1CCCCCC1(Cc1cnc[nH]1)c1ccc(Cl)cc1Cl` (centres undefined): 250 nM.
In the case of `CCC(CC)C(=O)Nc1ccc(-c2nnc(-c3ccc(OC)cc3)o2)cc1`, the concentration for half-maximal inhibition (IC50) was 5000 nM.
Take `N#Cc1cccc(CN2CCC(N(Cc3cccnc3)C(=O)c3cc(F)c(F)cc3F)CC2)c1`: the IC50 is 400 nM.
On to `CC(=O)Nc1nc(-c2cc(C)ccc2C)c(C)s1`, for which the IC50 was 200 nM.
Regarding `COc1ccc(-c2cnc(C)o2)cc1S(=O)(=O)Nc1ccc(C)cc1C`, the concentration for half-maximal inhibition (IC50) is 2500 nM.
On to `OCCCNc1nc(Nc2ccncc2)nc2ccccc12`, for which the concentration for half-maximal inhibition (IC50) was 630 nM.
The same measure for `COc1ccc(C2CC(c3ccc(NS(C)(=O)=O)cc3)=NN2C(=O)c2cccs2)cc1OC` (centres undefined): 25000 nM; for `CCCCn1c(=O)c2c(N)onc2n(CCCC)c1=O`: 25000 nM; for `Cc1[nH]n2c(=O)c3c(nc2c1-c1ccc(F)cc1)CCCC3`: 1600 nM.
Regarding `CN(C)c1ccc(N)cc1CN(CC1CCCO1)S(C)(=O)=O` (centres undefined), the IC50 was > 50000 nM (inactive).
In the case of `O=c1[nH]c(NCCCNCc2cc(Br)cc(Br)c2)nc2ccsc12`, the half-maximal inhibitory concentration (IC50) is 630 nM.
Take `CCN(CC)S(=O)(=O)c1ccc(Cn2nc(C(=O)Nc3ccncn3)c3ccccc32)cc1`: the half-maximal inhibitory concentration (IC50) is 320 nM.
Take `O=C(c1ccc(O)c(Cl)c1)N1CCN(c2cnccn2)CC1`: the IC50 is > 50000 nM (inactive).
As to `Cc1cc(Nc2cc(C3CC3)[nH]n2)nc(N2CCCC2)n1`, the IC50 is 79 nM.
For the compound `COc1ccc(C2CC(c3ccccc3Cl)=NN2C(=O)CNC(=O)C2CCC2)cc1` (centres undefined), the half-inhibitory concentration (IC50) was 2500 nM.
In the case of `Cc1nc2c(-c3nc(-c4ccc(N)cc4)n[nH]3)cccn2c1C`, the IC50 was 6300 nM.
Regarding `CNc1c(C(N)=O)c(-c2ccc3scnc3c2)nn1CC(F)(F)F`, the IC50 is 130 nM.
As for `Cc1cccnc1CN1CCN(CCCOc2ccc(-c3ccc(C(N)=O)cc3)cc2)CC1`, the IC50 is 630 nM.
Consider `Cc1ccc2ccc(C(Nc3ccccn3)c3cccnc3)c(O)c2n1` (centres undefined), for which the IC50 was 500 nM.
For the compound `N#Cc1cnc(Nc2cccc(CCN3CCOCC3)c2)nc1Nc1ccccc1C(N)=O`, the IC50 was 1300 nM.
For the compound `O=C(Cc1ccccc1)Nc1[nH]nc2sc(C(=O)NC3CCCC3)cc12`, the IC50 is 7900 nM.
Turning to `O=C(NCCCn1cnc2ccccc21)c1ccc(NC(=O)c2ccco2)cc1`, the concentration for half-maximal inhibition (IC50) was 4000 nM.
The value for `c1ccc(CNc2cccc3ccncc23)cc1` was 6300 nM; that for `O=C(NCCc1csc(-c2cccc(F)c2)n1)c1ccco1` was 1600 nM.
As to `O=C(NCCc1ccn(-c2ccccc2)n1)C1CCCCC1`, the IC50 was 1300 nM.
`COc1ccc(NS(=O)(=O)c2cccc(NC(=O)c3cc(F)cc(F)c3)c2)cc1`: the IC50 is 790 nM.
Take `Cn1nc([N+](=O)[O-])nc1Oc1ccc(C(=O)c2ccccc2)cc1`: the IC50 is 250 nM.
On to `Cc1ccc(Nc2nc(-c3ccccn3)cc(N3CCCC(O)C3)n2)cc1` (centres undefined), for which the 50% inhibitory concentration (IC50) was 500 nM.
With `Cc1ccc(S(=O)(=O)Nc2ccc(CN3CCN(C(=O)c4cccc(C)c4)CC3)cc2)cc1`, the IC50 is 500 nM.
`O=C(Nc1ccc(C(=O)N2CCCC2c2ccc3c(c2)OCCCO3)cc1)c1ccco1` (centres undefined): the IC50 was 500 nM.
Consider `CC(C)Nc1nccc(-c2c(-c3ccc(F)cc3)ncn2C2CCOCC2)n1`, for which the IC50 was 250 nM.
As to `Cc1ccnc(NS(=O)(=O)c2ccc(NC(=O)c3ccc([N+](=O)[O-])s3)cc2)n1`, the IC50 is 2000 nM.
On to `Cc1ccc(-c2csc(NC(=O)C=Cc3ccc(S(=O)(=O)N4CCOCC4)cc3)n2)o1`, for which the 50% inhibitory concentration (IC50) was 7900 nM.
For `COc1cc(C2SCC(=O)Nc3c2c(C)nn3-c2nc3ccccc3s2)cc(OC)c1O` (centres undefined), the IC50 was > 50000 nM (inactive).
As to `Cn1nc([N+](=O)[O-])nc1N1CCCCC1`, the IC50 was 1300 nM.
For the compound `O=C(O)[C@H]1C[C@@H]1c1ccc(-c2ccc(CN(CCc3ccccn3)C(=O)C3CCC3)cc2)cc1`, the IC50 is > 50000 nM (inactive).
For `CCc1cccc(CC)c1-n1c(SCC(=O)N2CC(=O)Nc3ccccc32)nnc1-c1cccnc1`, the 50% inhibitory concentration (IC50) is 25000 nM.
The same measure for `Cc1[nH]nc(-c2nc3ccccc3[nH]2)c1C(=O)NC1CCCNC1` (centres undefined): 790 nM; for `CC(CCc1ccccc1)NC(=O)CN(Cc1ccccn1)Cc1ccccn1` (centres undefined): 2500 nM.
`CN(C)Cc1ccc(-c2ccc(S(=O)(=O)NCC3CCCO3)c(F)c2)cc1` (centres undefined): the concentration for half-maximal inhibition (IC50) is 1300 nM.
Regarding `O=C(Cn1cnc2c(-c3ccccc3)csc2c1=O)N1CCCCC1`, the 50% inhibitory concentration (IC50) was 3200 nM.
The value for `COc1ccc([N+](=O)[O-])cc1NC(=O)c1cc(Cl)ccc1O` was 32000 nM; that for `O=[N+]([O-])c1ccc(-c2nnn(-c3cccnc3)n2)o1` was 250 nM; that for `CC(C)Oc1ccc(C(=O)Nc2ccc(N3CCOCC3)c(Cl)c2)cc1` was 1600 nM.
For the compound `CCCn1c(NC(=O)Cc2ccc(Cl)cc2)nc2ccccc21`, the IC50 was 630 nM.
On to `OC1CCC(Nc2nccc(-c3sc(C4CCOCC4)nc3-c3ccc(F)c(F)c3)n2)CC1` (centres undefined), for which the half-inhibitory concentration (IC50) was 320 nM.
In the case of `CC1CCCN(S(=O)(=O)c2ccc(C(=O)Nc3nc(-c4ccccn4)cs3)cc2)C1` (centres undefined), the IC50 is 400 nM.
For `NC(=O)c1cc(NC(=O)c2ccccc2COc2ccccc2)ccc1Cl`, the 50% inhibitory concentration (IC50) is 40000 nM.
`COc1cnc2ccc(=O)n(CCN3CCC(NC/C=C/c4cc(F)ccc4F)CC3)c2c1`: the 50% inhibitory concentration (IC50) is 16 nM.
The same measure for `COc1ccc(-c2cc(C)no2)cc1S(=O)(=O)Nc1ccc(F)c(Cl)c1`: 1600 nM.
On to `O=C(Cn1cnc2cc([N+](=O)[O-])ccc2c1=O)NCCc1ccc(Cl)cc1Cl`, for which the IC50 was 630 nM.
The same measure for `O=C(CSc1nnc(-c2ccc3c(c2)OCO3)o1)N(Cc1ccco1)CC(F)(F)F`: 10000 nM.
The value for `N#Cc1cc([N+](=O)[O-])ccc1NC1CCCCCC1` was 2500 nM; that for `Cc1nc2c(-c3ncn[nH]3)cc(NC(=O)Cc3ccccc3)cn2c1C` was 1000 nM; that for `COc1ccc2nccc([C@H](O)CN3CC[C@H](NC(=O)c4ccc(Br)cc4)[C@@H](O)C3)c2n1` was 250 nM.
As for `O=S(=O)(c1cccc(CSc2nnc(-c3ccc4c(c3)OCO4)o2)c1)N1CCOCC1`, the 50% inhibitory concentration (IC50) was 200 nM.
On to `CC(C)C[C@H](NC(=O)c1ccc(-c2ccccc2)o1)C(=O)NC1(C#N)CC1`, for which the IC50 was 32000 nM.
The value for `COc1ccccc1-n1c(SCC(=O)Nc2ccc3c(c2)OCO3)nc2c(c1=O)SCC2` was 40000 nM.
Consider `COc1ccc(-c2cnc(NC(=O)c3cc(-c4ccccn4)n[nH]3)n2C)cc1`, for which the half-maximal inhibitory concentration (IC50) was 3200 nM.
As to `CC(C(=O)Nc1ccc(Br)cc1)N1CCN(c2ccc([N+](=O)[O-])cc2)CC1` (centres undefined), the 50% inhibitory concentration (IC50) was 2500 nM.
On to `Cc1ccccc1CNC(=O)CN(Cc1ccccn1)Cc1ccccn1`, for which the half-maximal inhibitory concentration (IC50) was 5000 nM.
In the case of `COc1ccc(Cl)cc1CC(=O)Nc1n[nH]c(-c2ccccn2)n1`, the concentration for half-maximal inhibition (IC50) was 10000 nM.
For the compound `COc1ccc(CN2C(=O)C(O)(CC(=O)c3ccncc3)c3cc(Br)ccc32)cc1OC` (centres undefined), the concentration for half-maximal inhibition (IC50) was 2500 nM.

These data come from PubChem BioAssay AID1159559 (GlaxoSmithKline (GSK), 2015).
